Among the data in patent US20040024024A1, “Aromatic sulfone hydroxamates and their use as protease inhibitors” (priority 2001, published 2004) are Ki values, retold here.

Bounds are passed on as bounds.

Common to all, as to assay: In vitro MMP inhibition, Ki determination (fluorogenic substrate II)
Common to all, as to format: biochemical
Common to all, as to details: value in parentheses

In one experiment the target is T1, Human recombinant MMP-9 (Homo sapiens, UniProt P14780).
T1 construct: made in house; host or cells: MMP-9-transfected HT1080 cells (spent media)
T1 sequence (P14780 107-707 limits assumed): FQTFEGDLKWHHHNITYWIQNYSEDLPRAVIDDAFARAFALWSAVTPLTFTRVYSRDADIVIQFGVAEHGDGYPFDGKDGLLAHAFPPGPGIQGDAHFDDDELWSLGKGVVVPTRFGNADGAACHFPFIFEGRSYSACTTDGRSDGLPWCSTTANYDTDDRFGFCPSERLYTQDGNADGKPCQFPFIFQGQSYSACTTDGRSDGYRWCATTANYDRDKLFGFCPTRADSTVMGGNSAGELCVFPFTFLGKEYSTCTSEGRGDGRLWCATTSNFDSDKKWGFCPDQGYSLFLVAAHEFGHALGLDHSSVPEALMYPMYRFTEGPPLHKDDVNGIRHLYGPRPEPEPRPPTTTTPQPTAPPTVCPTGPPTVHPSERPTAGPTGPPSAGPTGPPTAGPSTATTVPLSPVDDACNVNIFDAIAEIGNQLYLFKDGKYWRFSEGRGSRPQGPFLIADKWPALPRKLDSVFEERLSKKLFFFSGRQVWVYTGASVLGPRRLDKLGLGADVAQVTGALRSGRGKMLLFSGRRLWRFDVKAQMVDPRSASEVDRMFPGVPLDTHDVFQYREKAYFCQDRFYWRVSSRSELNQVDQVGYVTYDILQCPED
In outline: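 MMP-9 proenzyme purified from transfected HT1080 cell media, activated with APMA, trypsin or recombinant MMP-3; hydroxamates diluted in pH 7.5 Tris/NaCl/CaCl2 buffer. Cleavage of 4 μM MCA/Dpa substrate II followed by fluorescence (ex 330/em 420 nm), 1 h at room temperature. Ki from Morrison-equation fit, substrate at/below Km, uncorrected.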

A further experiment has as its target T2, Human recombinant MMP-1 (Homo sapiens, UniProt P03956).
T2 construct: made in house; host or cells: MMP-1-transfected HT-1080 cells (spent media)
T2 sequence (P03956 100-469): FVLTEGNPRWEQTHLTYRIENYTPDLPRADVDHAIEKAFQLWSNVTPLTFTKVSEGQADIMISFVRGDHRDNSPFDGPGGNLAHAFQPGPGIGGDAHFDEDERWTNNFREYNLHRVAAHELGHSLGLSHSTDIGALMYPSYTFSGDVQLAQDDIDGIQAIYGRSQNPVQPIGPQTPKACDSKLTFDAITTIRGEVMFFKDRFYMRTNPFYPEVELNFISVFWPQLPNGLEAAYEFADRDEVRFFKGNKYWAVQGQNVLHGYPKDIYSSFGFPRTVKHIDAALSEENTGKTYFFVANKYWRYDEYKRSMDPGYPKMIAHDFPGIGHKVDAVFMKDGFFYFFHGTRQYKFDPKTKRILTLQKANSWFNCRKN
In outline:
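Activated human recombinant MMP-1 (APMA- or trypsin-activated; proenzyme from transfected HT-1080 cells) incubated 1 hr at room temperature with 4 μM MCA/Dpa fluorogenic substrate II at or below Km in Tris buffer pH 7.5 with CaCl2. Fluorescence ex 330/em 420 nm; Ki from Morrison-equation non-linear regression, uncorrected for substrate.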

In a further experiment the target is T3, Human recombinant MMP-13 (Homo sapiens, UniProt P45452).
T3 construct: made in house; host or cells: baculovirus / insect cells
In outline:
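Baculovirus-expressed proenzyme, APMA-activated; 4 μM fluorogenic MCA/Dpa peptide substrate (II), at or below Km, in Tris buffer pH 7.5 with CaCl2, 1 hr at room temperature. Fluorescence at 330/420 nm; Ki from non-linear regression with Morrison's equation, not corrected for substrate.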

As a reminder, the Ki is the equilibrium dissociation constant of an inhibitor or competing ligand from its target. Take `C#Cc1ccc(-c2cccc(CCCOc3ccc(S(=O)(=O)C4(C(=O)NO)CCN(CCOC)CC4)cc3)c2)cc1` [Example 646]: the figures for the inhibitory constant (Ki) at Human recombinant MMP-9, at Human recombinant MMP-1 and on Human recombinant MMP-13 were 76.2 nM, more than 10000 nM and 0.16 nM, respectively.
